Test results: patent US20120095032A1, “METHODS FOR TREATING LEUKEMIA AND MYELODYSPLASTIC SYNDROME, AND METHODS FOR IDENTIFYING AGENTS FOR TREATING SAME” (Sanford-Burnham Medical Research Institute, priority 2007, published 2012)
Where a name gives a salt, the structure may show the parent alone.

What was measured:
[1] = target: T1, HePTP (Homo sapiens, UniProt P35236); experiment: HePTP HTS primary screen (colorimetric pNPP / Biomol Green); format: biochemical; conditions: 20 μM compound; for inhibition at 20 µM: read-out: % Inhib. at 20 μM
T1 sequence (P35236 1-360): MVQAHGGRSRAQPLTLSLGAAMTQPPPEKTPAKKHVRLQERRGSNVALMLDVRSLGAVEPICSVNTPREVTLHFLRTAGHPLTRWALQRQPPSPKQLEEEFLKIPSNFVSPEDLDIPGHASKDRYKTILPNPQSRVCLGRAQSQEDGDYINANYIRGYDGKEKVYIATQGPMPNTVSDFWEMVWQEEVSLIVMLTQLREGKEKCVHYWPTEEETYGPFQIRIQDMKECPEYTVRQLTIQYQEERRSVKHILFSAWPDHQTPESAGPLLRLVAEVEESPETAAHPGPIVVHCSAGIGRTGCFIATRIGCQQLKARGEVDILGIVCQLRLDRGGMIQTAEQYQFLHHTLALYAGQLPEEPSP
Source text: (§1) The following assay can be conducted manually or can be carried out by a robotic station.
For this assay, HePTP catalyzes the following reaction:
wherein p-nitrophenyl phosphate serves as a substrate and is cleaved to form p-nitrophenol and phosphate. The liberated phosphate complexes with the Biomol Green™ reagent to provide a quantitative colorimetric value for the amount of substrate cleaved.
(§2) Compounds are then serially diluted in 100% DMSO, and then diluted with water to 10% final DMSO concentration.
(§3) The primary screening actives can then proceed to the dose-response confirmation stage.

[2] = target: T1, HePTP; experiment: HePTP dose-response confirmation screening; format: biochemical; conditions: for IC50: 10 concentrations, 2-fold serial dilution, pNPP substrate; for n / nH (Hill coefficient): Hill coefficient of the dose-response curve
Source text: as §1, §2, §3
* n represents the Hill coefficient. This coefficient is derived from the Hill equation which has the formula: […]
wherein θ is the fraction of ligand binding sites filled, L is the inhibitor concentration, Ka is the inhibitor concentration producing half occupation of the ligand binding sites, and n is the Hill coefficient.

Row | Compound | inhibition at 20 µM [1] [%] | IC50 [2] [µM] | n / nH (Hill coefficient) [2] | % Inhib. at 20 μM [1] [%]
1 | O=C(c1ccc(=O)oc1)N1CCOCC1 | 54.1 | 0.99 | 1.02 | –
2 | O=C(O)c1ccccc1-c1ccc(/C=c2\sc3nc4cc(Br)cnc4n3c2=O)o1 | 102 | 1.79 | 7.56 | –
3 | CCC1=NC2Sc3ccccc3C(=O)C2C(=O)N1Cc1ccco1 (centres unmarked) | 79.4 | 15.1 | 1.27 | –
4 | CSc1nc(N(CCO)CCO)c2sc3nc(-c4ccco4)c4c(c3c2n1)CCC4 | 62.5 | 0.41 | 2.28 | –
5 | COc1ccc(Cn2c(C)nc3c(c2=O)c2nc4ccccc4nc2n3Cc2ccco2)cc1 | 104 | 6.86 | 2.17 | –
6 | CCn1c(SC(C)C(=O)O)nc2c(c1=O)C1=C(CCC1)C2 (centres unmarked) | 86 | 1.69 | 3.77 | –
7 | CCn1c(SCC(=O)O)nc2c(c1=O)C1=C(CCC1)C2 | 102 | 1.29 | 4.48 | –
8 | COc1ccc2c(c1)=CC(=C1N=C(c3ccc(F)cc3)ON1)C(=O)N=2 (stereo in doubt) [(3Z)-3-[5-(4-fluorophenyl)-1,2,4-oxadiazol-3-ylidene]-6-methoxy-quinolin-2-one] | 99.2 | 2.18 | 2.73 | –
9 | COc1ccc2c(c1)=CC(=C1N=C(c3ccccc3)ON1)C(=O)N=2 (stereo in doubt) [(3Z)-6-methoxy-3-(5-phenyl-1,2,4-oxadiazol-3-ylidene)quinolin-2-one] | 77.1 | 4.23 | 4.29 | –
10 | N#Cc1c(N2CCCC2)nc(N)c2c(N)nc(N3CCCC3)cc12 [1,8-Diamino-3,6-dipyrrolidin-1-yl-2,7-naphthyridine-4-carbonitrile] | 61.3 | 6.96 | 0.99 | –
11 | O=C1CC(=O)N(Cc2ccco2)C(=O)N1 [1-(2-Furylmethyl)-1,3-diazinane-2,4,6-trione] | 84.9 | 1.31 | 1.67 | –
12 | c1coc(-c2nc(-c3ccco3)c(-c3ccco3)nc2-c2ccco2)c1 [2,3,5,6-tetrakis(2-furyl)pyrazine] | 74.1 | 1.14 | 2.26 | –
13 | Cc1c(N2C(=O)c3ccc4c5c(ccc(c35)C2=O)CC4)c(=O)n(-c2ccccc2)n1C [2-(1,5-Dimethyl-3-oxo-2-phenyl-2,3-dihydro-1H-pyrazol-4-yl)-6,7-dihydro-1H-indeno[6,7,1-def]isoquinoline-1,3(2H)-dione] | 93.1 | 1.17 | 2.23 | –
14 | Cc1ccc(C)n1C(Cc1ccccc1)C(=O)O (centres unmarked) [2-(2,5-Dimethylpyrrol-1-yl)-3-phenyl-propanoic acid] | 102 | 0.42 | – | –
15 | O=C(O)C(O)c1ccco1 (centres unmarked) [2-(2-Furyl)-2-hydroxy-acetic acid] | 100 | 2.3 | 1.79 | –
16 | Cc1cccc(Nc2nn3c(=O)c4ccccc4nc3s2)c1 [2-(3-Methylphenylamino)-5H-[1,3,4]thiadiazolo[2,3-b]quinazolin-5-one] | 53.9 | 2.74 | 1.32 | –
17 | COc1ccc(N2Cc3cccc(C(=O)O)c3C2=O)cc1 [2-(4-Methoxyphenyl)-3-oxo-1H-isoindole-4-carboxylic acid] | 57.2 | 1.17 | 3.7 | –
18 | O=C(COC(=O)c1cccc(S(=O)(=O)N2CCN(c3ccccc3)CC2)c1)NCc1ccco1 [2-Furylmethylcarbamoylmethyl 3-(4-phenylpiperazin-1-yl)sulfonylbenzoate] | 50.7 | 4.97 | 2.07 | –

Row | Compound | inhibition at 20 µM [1] [%] | IC50 [2] [µM] | n / nH (Hill coefficient) [2] | % Inhib. at 20 μM [1] [%]
19 | Cc1ccc(C)n1-c1cccc(C(=O)O)c1 [3-(2,5-Dimethylpyrrol-1-yl)benzoic acid] | 102 | 1.3 | 2.59 | –
20 | O=C(CCS(=O)(=O)c1ccc(Br)cc1)NCc1cccs1 [3-(4-Bromophenyl)sulfonyl-N-(thiophen-2-ylmethyl)propanamide] | 103 | 68.3 | 1.24 | –
21 | c1ccc(CSc2nnc(-c3ccco3)c(-c3ccco3)n2)cc1 [3-Benzylsulfanyl-5,6-bis(2-furyl)-1,2,4-triazine] | 53.9 | 2.74 | 1.32 | –
22 | O=C(O)c1cccc(-n2cccc2/C=N/O)c1 [3-[2-(Hydroxyiminomethyl)pyrrol-1-yl]benzoic acid] | 58.1 | 1.4 | 1.45 | –
23 | COc1ccc(Br)cc1/C=c1\sc2nc(-c3ccco3)nn2c1=O [3-[(5-Bromo-2-methoxy-phenyl)methylidene]-7-(2-furyl)-4-thia-1,6,8-triazabicyclo[3.3.0]octa-5,7-dien-2-one] | 95.3 | 0.42 | 2.5 | –
24 | NC(=O)c1c(NC(=O)CSc2nnc(-c3ccco3)n2-c2ccccc2)sc2c1CCC2 [3-[[2-[[5-(2-furyl)-4-phenyl-1,2,4-triazol-3 - yl]sulfanyl]acetyl]amino]-4-thiabicyclo[3.3.0]octa-2,9-diene-2-carboxamide] | – | 10.6 | 4.06 | 97.5
25 | CC1(C)CCCN(C(=O)c2coc(=O)c(Br)c2)C1 [3-bromo-5-(3,3-dimethylpiperidine-1-carbonyl)pyran-2-one] | 102 | 0.4 | 2.66 | –
26 | COc1cccc(C(=O)NC2CC3CCCC(C2)N3CC(=O)Nc2ccccc2)c1 (centres unmarked) [3-methoxy-N-[9-(phenylcarbamoylmethyl)-9-azabicyclo[3.3.1]non-7-yl]benzamide hydrochloride] | 103 | 4.67 | 4.22 | –
27 | O=C(O)c1cc(O)c2c(c1)C(=O)c1cccc(O)c1C2=O [4,5-Dihydroxy-9,10-dioxo-anthracene-2-carboxylic acid] | 64.2 | 19.6 | 0.76 | –
28 | Cc1cc(C)n(-c2nc(Nc3ccccc3)nc(-n3nc(C)cc3C)n2)n1 [4,6-bis(3,5-Dimethylpyrazol-1-yl)-N-phenyl-1,3,5-triazin-2-amine] | 50.5 | 21.6 | 2.83 | –
29 | Cc1cc(C(=O)O)ccc1-n1c(C)ccc1C [4-(2,5-Dimethylpyrrol-1-yl)-3-methyl-benzoic acid] | 103 | 0.7 | 2.09 | –
30 | O=C1Nc2ccccc2SC(c2ccccc2)C1O (centres unmarked) [4-Hydroxy-3-phenyl-2-thia-6-azabicyclo[5.4.0]undeca-7,9,11-trien-5-one] | 67.2 | 1.15 | 2.13 | –
31 | CN(C)c1ccc(-c2nn3c(-c4ccc(Cl)cc4Cl)nnc3s2)cc1 [4-[2-(2,4-Dichlorophenyl)-6-thia-1,3,4,8-tetrazabicyclo[3.3.0]octa-2,4,7-trien-7-yl]-N,N-dimethyl-aniline] | 64.3 | 78.4 | 2.71 | –
32 | O=C(O)CCC(=O)N1CCc2cc(S(=O)(=O)N3CCN(c4ccc(F)cc4)CC3)ccc21 [4-[5-[4-(4-Fluorophenyl)piperazin-1-yl]sulfonyl-2,3-dihydroindol-1-yl]-4-oxo-butanoic acid] | 58.8 | 3.77 | 7.72 | –
33 | Cc1ccc(-c2nn3c(C)nnc3s2)cc1NC(=O)c1ccc(-c2ccc(Cl)cc2Cl)o1 [5-(2,4-Dichlorophenyl)-N-[2-methyl-5-(2-methyl-6-thia-1,3,4,8-tetrazabicyclo[3.3.0]octa-2,4,7-trien-7-yl)phenyl]furan-2-carboxamide] | 92.4 | 2.12 | 1.3 | –
34 | Cc1nnc2sc(-c3ccc(NC(=O)c4ccc(-c5ccc(Cl)cc5Cl)o4)cc3)nn12 [5-(2,4-Dichlorophenyl)-N-[4-(2-methyl-6-thia-1,3,4,8-tetrazabicyclo[3.3.0]octa-2,4,7-trien-7-yl)phenyl]furan-2-carboxamide] | 102 | 1.5 | 1.94 | –
35 | O=C1CCCC2=C1C(c1ccco1)Nc1ccc3ccccc3c12 (centres unmarked) [5-(Furan-2-yl)-2,3,5,6-tetrahydrobenzo[a]phenantridin-4(1H)-one] | 59.4 | 5.95 | 2.08 | –
36 | COc1ccc(Br)cc1C(=O)Nc1cccc(-c2nnc(-c3ccco3)o2)c1 [5-Bromo-N-[3-[5-(2-furyl)-1,3,4-oxadiazol-2-yl]phenyl]-2-methoxy-benzamide] | 102 | 4.9 | 1.47 | –
